Data taken from patent US20240252670A1, “ANTIBODY DRUG CONJUGATE, PREPARATION METHOD THEREFOR AND APPLICATION THEREOF” (TSINGHUA UNIVERSITY, priority 2021, published 2024).

Assays:
[1] = test system: B16 melanoma; assay: Anti-tumor activity in B16 melanoma mouse model; format: in vivo; settings: B16 mice, i.p.; antibody drugs 150 μg, D18 25 μg per mouse; dosing to day 21
Description: (§1) A. Treatment with ADC HE-S2, single administration of anti-PD-L1 antibody, D18, or anti-PD-L1 THIOMAB, and anti-PD-L1 antibody/D18 combined administration for inhibitory activity against mouse MC38 tumor growth. B. Whole animal survival study. The ordinate of the curve represents the percentage of tumor-bearing mice that remained alive after different days, and the abscissa thereof represents the number of experimental days. C. Treatment with ADC HE-S2, single administration of anti-PD-L1 antibody, D18, or anti-PD-L1 THIOMAB, and anti-PD-L1 antibody/D18 combined administration for inhibitory activity against mouse MC38 tumor growth. Student's t test was used to compare significant differences between the groups, and p<0.001 is represented by ***.
B16 melanoma is a tumor with low PD-L1 level and certain drug resistance to PD-1/PD-L1 blocking treatment. As a result, as expected by the inventors, the inhibitory effect of each drug on B16 melanoma was reduced relative to the MC38 tumor.
(§2) Dosage: Antibody drugs, administered 150 μg per mouse for each time, and D18, administered 25 μg per mouse for each time. - means no administration on the day. * Only mice with MC38 tumor model were allowed to be administered until the 24th day, and mice with B16 tumor model were no longer administered after the 21st day.

[2] = test system: MC38 tumor; assay: Anti-tumor activity and survival in MC38 mouse tumor model; format: in vivo; settings: for inhibitory activity against MC38 tumor growth: MC38 mice, i.p., antibody drugs 150 μg per mouse, D18 25 μg per mouse, schedule Table 1
Description: as §1
To verify the anti-cancer activity of ADC HE-S2, the inventors first made a mouse model with MC38. After the tumor was loaded, a visible tumor could be observed on the mouse surface for about one week. When the mean tumor tissue volume of the mice reached 100 mm^3, the mice were randomly grouped as follows according to the final type of drug administered: IgG isotype control antibody group (abbreviated as IgG), anti-PD-L1 antibody group (anti-PD-L1), anti-PD-L1 THIOMAB group (Thiomab), D18 group (D18), D18/anti-PD-L1 antibody combination treatment group (anti-PD-L1 & D18), and ADC HE-S2 group (ADC HE-S2), with 7-8 mice per group. The IgG isotype control antibody group, the anti-PD-L1 antibody (i.e., avelumab as described in Example 2) group, and the anti-PD-L1 THIOMAB (i.e., mutant antibody prepared in Example 2) group were administered twice a week via intraperitoneal injection of 150 μg per mouse for each time. The D18 group was administered twice a week via intraperitoneal injection of 25 μg per mouse for each time. In the D18/anti-PD-L1 antibody combination treatment group, the anti-PD-L1 antibody was dosed twice a week, 150 μg per mouse for each time; the D18 was dosed […], 25 μg per mouse for each time; in the ADC HE-S2 group, ADC HE-S2 was dosed once a week via intraperitoneal injection of 150 μg per mouse for each time; the anti-PD-L1 antibody was dosed once a week, staggered from the administration of the ADC, via intraperitoneal injection of 150 μg per mouse for each time.
as §2

[3] = Effect of drug treatment on body weight of healthy mice; format: in vivo, mouse; settings: antibody drugs 150 μg, D18 25 μg per dose
Experimental: Mice were treated with ADC HE-S2, anti-PD-L1 antibody+D18 in combination, anti-PD-L1 antibody alone, D18 alone, and isotype IgG, and their body weight variations were recorded. The time of administration for each drug is indicated by the arrow. Student's t test was used to compare significance differences between groups, wherein p<0.05 is represented by *. p<0.01 is represented by **, and no significance difference is represented by ns.
Then, the inventors examined the effect of each group of drug treatment on the body weight of mice in a mouse model to determine the toxic and side effects of the drugs used, and the results are shown in FIG. 17. Healthy mice were divided into an ADC group, an anti-PD-L1 antibody+D18 group, an anti-PD-L1 antibody group, a D18 group and an IgG group according to the administration, with 5 mice per group. The mode and dose of administration for each group of mice were the same as those in the mouse tumor model experiment: in the ADC group, ADC HE-S2 was dosed once a week, and the anti-PD-L1 antibody was […], 150 μg for each time; D18 was dosed once a week, 25 μg for each time; the anti-PD-L1 antibody and the IgG isotype antibody were dosed twice a week, 150 μg for each time.

[4] = biological target: murine PD-L1 (Mus musculus, UniProt Q9EP73); settings: Deng et al., 2016; cited from earlier work
murine PD-L1, sequence (Q9EP73 19-290): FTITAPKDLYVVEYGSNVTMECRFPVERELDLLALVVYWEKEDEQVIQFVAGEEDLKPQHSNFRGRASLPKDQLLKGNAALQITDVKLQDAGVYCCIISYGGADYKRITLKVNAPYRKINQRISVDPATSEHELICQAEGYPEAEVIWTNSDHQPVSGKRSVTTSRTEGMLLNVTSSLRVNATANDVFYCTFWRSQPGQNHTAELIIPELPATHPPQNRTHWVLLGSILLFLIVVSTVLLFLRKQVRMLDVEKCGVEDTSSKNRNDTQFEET

Compound | inhibitory effect on B16 melanoma [1] | inhibitory activity against MC38 tumor growth [2] | survival rate of mice ([2]; until day 70) | body weight change of the mice after administration [3] | cross-reaction with murine PD-L1 [4]
CCCCNc1nc(N)nc2ccc(Cc3ccc(CN(C)C)cc3)nc12 [D18, N^4-butyl-6-(4-((dimethylamino)methyl)benzyl)pyridine[3,2-d]pyriproxyfen-2,4-diamine] | almost comparative to that of the IgG isotype antibody | slightly superior to the efficacy of the IgG isotype antibody | 1/8 | some decreases in body weight | 
anti-PD-L1 antibody: fully humanized IgG1 type monoclonal anti-PD-L1 antibody drug avelumab [reference compound] | almost comparative to that of the IgG isotype antibody | slightly superior to the efficacy of the IgG isotype antibody |  | almost consistent with that of the blank control IgG group | cross-react with murine PD-L1
